Results as given in patent publication US20120252741A1, “NOVEL SEMI-SYNTHETIC GLYCOPEPTIDES AS ANTIBACTERIAL AGENTS” (priority 2008, published 2012).
In brackets after ≈: the same amount, converted by molar mass. Like-named read-outs stand apart in the source and are kept apart here.

Key:
Assay type in all cases: cell-based
[1] = test system: Staphylococcus aureus 100 (ATCC 29213); assay: MIC, broth microdilution, SA 100; settings: Staphylococcus aureus, ATCC29213, class symbols, read-out: MIC SA 100
Experimental: (§1) Antibacterial activity in vitro is investigated by broth microdilution method in Meuller-Hinton broth as recommended by NCCLS. All strains tested are clinical isolates either sensitive or resistant to natural glycopeptides. MIC values were determined using the CLSI-recommended broth microdilution procedure (Clinical and Laboratory Standards Institute, Methods for Dilution Antimicrobial Susceptibility Tests for Bacteria That Grow Aerobically; Approved Standard-Seventh Edition.). Automated liquid handlers (Multidrop 384, Labsystems, Helsinki, Finland; Biomek 2000 and Multimek 96, Beckman Coulter, Fullerton Calif.) were used to conduct serial dilutions and liquid transfers. The MIC value for vancomycin is given for comparison. The abbreviations for organisms tested are as follow: SA 100—Staphylococcus aureus 100 (ATCC 29213); SA 757—Staphylococcus aureus 757 (MRSA); SA 2012—Staphylococcus aureus 2012 (VISA); SE 835—Staphylococcus epidermidis 835; SE 831—Staphylococcus epidermidis 831 (MRSE); EFc 101—Enterococcus faecalis 101 (ATCC 29212); EFc 848—Enterococcus faecalis 848 (VRE, Van A); EFcm 800—Enterococcus faecium 800; EFcm 752—Enterococcus faecium 752 (VRE, Van A); SPNE 1195—Streptococcus pneumoniae 1195 (ATCC 49619); SPY 712—Streptococcus pyogenes 712.

[2] = test system: Enterococcus faecalis 848 (VRE, Van A); assay: MIC, broth microdilution, EFc 848; settings: VRE, Van A, class symbols, read-out: MIC E FC 848
Experimental: as §1

[3] = test system: Staphylococcus epidermidis 831 (MRSE); assay: MIC, broth microdilution, SE 831; settings: Staphylococcus epidermidis, read-out: MIC SE 831
Experimental: as §1

[4] = test system: Enterococcus faecium 800; assay: MIC, broth microdilution, EFcm 800; settings: Enterococcus faecium, 800, class symbols, read-out: MIC E FCM 800
Experimental: as §1

[5] = test system: Staphylococcus aureus 2012 (VISA); assay: MIC, broth microdilution, SA 2012; settings: read-out: MIC SA 2012
Experimental: as §1

[6] = test system: Staphylococcus epidermidis 835; assay: MIC, broth microdilution, SE 835; settings: Staphylococcus epidermidis, 835, class symbols, read-out: MIC SE 835
Experimental: as §1

[7] = test system: Streptococcus pneumoniae 1195 (ATCC 49619); assay: MIC, broth microdilution, SPNE 1195; settings: Streptococcus pneumoniae, ATCC49619, class symbols, read-out: MIC S PNE 1195
Experimental: as §1

[8] = test system: Streptococcus pyogenes 712; assay: MIC, broth microdilution, SPY 712; settings: Streptococcus pyogenes, 712, class symbols, read-out: MIC S PYO 712
Experimental: as §1

[9] = test system: Enterococcus faecalis 101 (ATCC 29212); assay: MIC, broth microdilution, EFc 101; settings: Enterococcus faecalis, ATCC29212, class symbols, read-out: MIC E FC 101
Experimental: as §1

[10] = test system: Staphylococcus aureus 757 (MRSA); assay: MIC, broth microdilution, SA 757; settings: read-out: MIC SA 757
Experimental: as §1

[11] = test system: Enterococcus faecium 752 (VRE, Van A); assay: MIC, broth microdilution, EFcm 752; settings: VRE, Van A, class symbols, read-out: MIC E FCM 752
Experimental: as §1

[12] = Table 2, in the presence of 0.002% Polysorbate 80
[13] = Table 2, in the presence of 0.002% Polysorbate 80, class symbols

Compound	MIC ([1]; Table 1) [µg/mL]	MIC ([2]; Table 1) [µg/mL]	MIC ([3]; Table 1, class symbols) [µg/mL]	MIC ([4]; Table 1) [µg/mL]	MIC ([5]; Table 1, class symbols) [µg/mL]	MIC ([6]; Table 1) [µg/mL]	MIC ([7]; Table 1) [µg/mL]	MIC ([8]; Table 1) [µg/mL]	MIC ([9]; Table 1) [µg/mL]	MIC ([10]; Table 1, class symbols) [µg/mL]	MIC ([11]; Table 1) [µg/mL]	other results
CCOc1ccc(C(=O)NC(=O)C[C@@H]2NC(=O)[C@H](NC(=O)[C@@H](CC(C)C)NC)[C@H](O)c3ccc(c(Cl)c3)Oc3cc4cc(c3O[C@@H]3O[C@H](CO)[C@@H](O)[C@H](O)[C@H]3O[C@H]3C[C@](C)(N)[C@H](O)[C@H](C)O3)Oc3ccc(cc3Cl)[C@@H](O)[C@@H]3NC(=O)[C@H](NC(=O)[C@@H]4NC2=O)c2ccc(O)c(c2)-c2c(O)cc(O)cc2[C@@H](C(=O)NC2C4CC5CC(C4)CC2C5)NC3=O)cc1 (some centres unmarked) [Compound 63]												MIC [1, 12]: 0.01 to 0.5 µg/mL; MIC [2, 12]: 4 to 8 µg/mL; MIC [3, 13]: 0.01 to 0.5 µg/mL; MIC [4, 12]: 0.01 to 0.5 µg/mL; MIC [5, 13]: 2 to 4 µg/mL; MIC [6, 12]: 0.01 to 0.5 µg/mL; MIC [7, 12]: 0.01 to 0.5 µg/mL; MIC [8, 12]: 0.01 to 0.5 µg/mL; MIC [9, 12]: 0.01 to 0.5 µg/mL; MIC [10, 13]: 0.01 to 0.5 µg/mL; MIC [11, 12]: 1 to 2 µg/mL
CN[C@H](CC(C)C)C(=O)N[C@H]1C(=O)N[C@@H](CC(=O)NS(=O)(=O)c2ccc(OCCOCCOC)cc2)C(=O)N[C@H]2C(=O)N[C@H]3C(=O)N[C@H](C(=O)N[C@H](C(=O)NC4C5CC6CC(C5)CC4C6)c4cc(O)cc(O)c4-c4cc3ccc4O)[C@H](O)c3ccc(c(Cl)c3)Oc3cc2cc(c3O[C@@H]2O[C@H](CN)[C@@H](O)[C@H](O)[C@H]2O)Oc2ccc(cc2Cl)[C@H]1O (some centres unmarked) [Compound 102]	0.01 to 0.5 (≈ 0.00589 to 0.295 µM)	2 to 4 (≈ 1.18 to 2.36 µM)	0.01 to 0.5 (≈ 0.00589 to 0.295 µM)	0.01 to 0.5 (≈ 0.00589 to 0.295 µM)	0.5 to 1 (≈ 0.295 to 0.589 µM)	0.01 to 0.5 (≈ 0.00589 to 0.295 µM)	0.01 to 0.5 (≈ 0.00589 to 0.295 µM)	0.01 to 0.5 (≈ 0.00589 to 0.295 µM)	0.01 to 0.5 (≈ 0.00589 to 0.295 µM)	0.01 to 0.5 (≈ 0.00589 to 0.295 µM)	0.5 to 1 (≈ 0.295 to 0.589 µM)	
CCCCCCOc1ccc(S(=O)(=O)NC(=O)C[C@@H]2NC(=O)[C@H](NC(=O)[C@@H](CC(C)C)NC)[C@H](O)c3ccc(c(Cl)c3)Oc3cc4cc(c3O[C@@H]3O[C@H](CO)[C@@H](O)[C@H](O)[C@H]3O)Oc3ccc(cc3Cl)[C@@H](O)[C@@H]3NC(=O)[C@H](NC(=O)[C@@H]4NC2=O)c2ccc(O)c(c2)-c2c(O)cc(O)cc2[C@@H](C(=O)NC2C4CC5CC(C4)CC2C5)NC3=O)cc1 (some centres unmarked) [Compound 118]	2 to 4 (≈ 1.19 to 2.38 µM)	2 to 4 (≈ 1.19 to 2.38 µM)	1 to 2 (≈ 0.595 to 1.19 µM)	0.01 to 0.5 (≈ 0.00595 to 0.298 µM)	> 16	1 to 2 (≈ 0.595 to 1.19 µM)	0.01 to 0.5 (≈ 0.00595 to 0.298 µM)	0.01 to 0.5 (≈ 0.00595 to 0.298 µM)	0.5 to 1 (≈ 0.298 to 0.595 µM)	1 to 2 (≈ 0.595 to 1.19 µM)	1 to 2 (≈ 0.595 to 1.19 µM)	
CCCCOCC(=O)NC(=O)C[C@@H]1NC(=O)[C@H](NC(=O)[C@@H](CC(C)C)NC)[C@H](O)c2ccc(c(Cl)c2)Oc2cc3cc(c2O[C@@H]2O[C@H](CO)[C@@H](O)[C@H](O)[C@H]2O[C@H]2C[C@](C)(N)[C@H](O)[C@H](C)O2)Oc2ccc(cc2Cl)[C@@H](O)[C@@H]2NC(=O)[C@H](NC(=O)[C@@H]3NC1=O)c1ccc(O)c(c1)-c1c(O)cc(O)cc1[C@@H](C(=O)NC1C3CC4CC(C3)CC1C4)NC2=O (some centres unmarked) [Compound 44]	0.5 to 1 (≈ 0.295 to 0.589 µM)	> 16	0.01 to 0.5 (≈ 0.00589 to 0.295 µM)	0.01 to 0.5 (≈ 0.00589 to 0.295 µM)	2 to 4 (≈ 1.18 to 2.36 µM)	0.01 to 0.5 (≈ 0.00589 to 0.295 µM)	0.01 to 0.5 (≈ 0.00589 to 0.295 µM)	0.01 to 0.5 (≈ 0.00589 to 0.295 µM)	0.5 to 1 (≈ 0.295 to 0.589 µM)	0.5 to 1 (≈ 0.295 to 0.589 µM)	> 16	
